One data set concerns NF-κB. The data set can be described thus: NF-κb promoter-luciferase assay. Particulars: LPS-treated Raw264.7/NF-κb-luciferase cells; 12 μM, 25 μM, 50 μM. Type of data set: cell-based. On the procedure: Raw264.7/NF-kb-luc cells were treated with 1 mg/mL LPS and various concentrations of compounds using the same method as used for measuring NO. 16 hours later, after adding the D-luciferin solution to the cells, luminescence images were obtained using the IVIS Lumina III. Quantification of the luminescence images was performed using Living Imaging software.
Nuclear factor-kappa B (NF-κB), which plays an important role in inflammatory responses, is a transcription factor that regulates the synthesis of various cytokines, chemokines, and growth factors. NFκB is composed of p50 and p65, enters the nucleus, acts as a transcription factor, and synthesizes iNOS, COX-2, and inflammation-related cytokines, and generally binds to the inhibitor NF-κBα (IκBα) in the cytoplasm, thereby inhibiting the action of NF-κB. In order to confirm whether NF-κb-related cell signaling induced in Raw264.7 cells was affected by the compound of Example 1, NF-κb promoter-luciferase analysis and pIKKαβ expression change analysis were performed in Raw264.7 cells using 1 mg/mL LPS and the compound of Example 1 at concentrations of 0, 12 μM, 25 μM, and 50 μM.

In data set [1] the target is PPARδ ligand-binding domain (LBD) (Homo sapiens (Human), UniProt Q03181). The data set can be described thus: PPARδ activation, TR-FRET coactivator peptide recruitment (enzyme activity EC50). Type of data set: biochemical. As to conditions: GST-PPARδ LBD 5 nM, read-out: Enzymatic activity (EC50). On the technique in general: Time-resolved FRET reads energy transfer from a long-lived donor to a nearby acceptor.

In a further data set the test system is TNF-α. The data set can be described thus: TNF-α secretion, cytometric bead array. Type of data set: cell-based. Particulars: LPS-stimulated Raw264.7, 24 hours; 12 μM, 25 μM, 50 μM. The source says:
(§1) The supernatant was dispensed using the same method as used for measuring NO. High amounts of TNF-α and IL-6 in the supernatant were quantified using the multiplex bead-based immunoassay (BD™ Cytometric Bead Array) system and flow cytometry (BD Biosciences).
(§2) LPS, well known as an endotoxin present in the outer cell membrane of Gram-negative bacteria, stimulates macrophages or monocytes to promote the secretion of inflammatory cytokines such as tumor necrosis factor-α (TNF-α), interleukin-1l (IL-1), and interleukin-6 (IL-6). Accordingly, in order to analyze the effect of the compound of Example 1 on inhibiting cytokine secretion, RAW264.7 cells were cultured for 24 hours by adding 1 mg/mL of LPS and the compound of Example 1 at concentrations of 0, 12 μM, 25 μM, and 50 μM, and the concentrations of IL-6 and TNFα in the culture supernatant were measured.

Data set [2] has as its system LPS-stimulated Raw264.7 cells. The data set can be described thus: Nitric oxide (NO) production, Griess reagent. Type of data set: cell-based. Particulars: LPS-stimulated Raw264.7, 24 hours. On the procedure: The concentration of NO was measured using the nitrite concentration in the culture medium with the Griess reagent system (Promega). Raw264.7 cells were adjusted to 2.5×10^5 cells/mL using DMEM medium, inoculated into 24-well plates, and pre-cultured for 20 hours in a 5% CO2 incubator. The cells were treated with […] of LPS and various concentrations of the example compounds and recultured for 24 hours. After obtaining the supernatant of the culture medium, the NO concentration was measured using the Griess reagent system according to the protocol provided by the manufacturer. The absorbance was measured at 540 nm using a microplate reader [BMG Labtech (located in Offenburg, Germany)]. The concentration of NO in the cell culture medium was calculated by comparing it with a standard curve for each concentration of sodium nitrite (NaNO2).
1 mg/mL lipopolysaccharide (LPS) and the compounds of Example 1 at concentrations of 0, 12 μM, 25 μM, and 50 μM were added to Raw264.7 cells, cultured for 24 hours, and changes in NO concentration in the upper layer of the culture were analyzed.

The subject of data set [3] is macrophage infiltration into carrageenan-injected sole. In words: Macrophage tracking by fluorescence imaging in carrageenan-induced acute inflammation. Type of data set: in vivo, mouse. As to conditions: C57BL/6 mice, 50 mg/kg oral, 6 hours after inducing inflammation, versus vehicle group. On the procedure: 2 mL of thioglycollate medium (BD, USA) was injected into the abdominal cavity of a C57Bl/6 mouse, and three days later, the mouse was cervically dislocated, and 8 mL of Dulbecco's modified Eagle's medium (DMEM) was injected into the abdominal cavity to collect cells. After centrifugation, the cells were suspended in DMEM containing 10% fetal bovine serum (FBS) and 1% penicillin-streptomycin and cultured in a 5% CO2 incubator at 37° C. for 2 hours. Non-adherent cells were removed, and the remaining cells were used for experiments.
The acute anti-inflammatory activity of the example compound was evaluated using a macrophage tracking technique with fluorescence imaging. Macrophages extracted from the mouse abdominal cavity were labeled with Vybrant™ DiD Cell-Labeling Solution and then administered to the mouse via intravenous injection. The next day, 50 mg/kg of the example compound was orally administered, and 1 hour later, a 0.1% Carrageenan (CG) solution or PBS was subcutaneously injected into the right or left sole of the mouse. Fluorescent images were obtained using IVIS Lumina III at the designated time.
The inflammation model induced by λ-carrageenan in the mouse foot region is an acute arthritis model and is useful when checking the effect of suppressing edema due to osteoarthritis. […]

Another data set has as its system IL-6. In words: IL-6 secretion, cytometric bead array. Type of data set: cell-based. As to conditions: LPS-stimulated Raw264.7, 24 hours; 12 μM, 25 μM, 50 μM.
Description: as §1, §2

The next data set concerns RAW 264.7 cells. In words: Cytotoxicity, CCK-8 assay. Type of data set: cell-based. Particulars: Raw264.7 cells; 12 μM, 25 μM, 50 μM. On the procedure: To evaluate the cytotoxicity of the sample, cell proliferation was tested using a cell counting kit [CCK-8; Dojindo Laboratories (Tokyo, Japan)]. RAW 264.7 cell 1×10^4 cells/mL were dispensed into a well plate, and after pre-culturing for 20 hours, […] of LPS and example compounds were added at different concentrations and cultured for 24 hours in an incubator at 37° C. and 5% CO2. After culturing, 10 μl CCK-8 reagent was added and recultured for 1 to 2 hours, and the absorbance was measured. The absorbance was measured at 450 nm using a microplate reader [BMG Labtech (located in Offenburg, Germany)].
In order to evaluate the cytotoxicity of the compound of Example 1, Raw264.7 cells, a macrophage cell line, were treated with the compound of Example 1 at concentrations of 0, 12 μM, 25 μM, and 50 μM, respectively, and then CCK8 assay was performed according to <Experiment Method> 3 above. […] Specifically, cell proliferation was similar to that of the vehicle group even at a concentration of up to 50 μM, and no significance was detected.

The target in a further data set is iNOS (Mus musculus (Mouse), UniProt P29477). The data set can be described thus: iNOS protein expression, Western blot. Type of data set: cell-based. Particulars: LPS-stimulated Raw264.7; 12 μM, 25 μM, 50 μM. On the procedure: (§3) The cells were washed twice with cold PBS and lysed with RIPA buffer (Roche) containing a complete protease inhibitor cocktail. Protein concentration was quantified using the BCA protein assay kit (Pierce, IL, USA), and 30 μL of lysate was separated by 10% SDS-PAGE. The separated proteins were transferred to a polyvinylidene difluoride (PVDF) membrane (Biorad, CA, USA) at 70 mA for 1 hour and 30 minutes, then blocked with tris-buffered saline (TBST; pH 7.5) containing 50 mg/mL skim milk at room temperature for 2 hours. As antibodies to examine the expression levels of iNOS and pIKKαβ, anti-iNOS and pIKKαβ were used, diluted 1:1000 and reacted at room temperature for 2 hours, followed by washing three times with TBST. As secondary antibodies, horseradish peroxidase (HRP)-conjugated anti-mouse IgG and anti-rabbit IgG were diluted 1:2000 and reacted at room temperature for 1 hour, followed by washing three times with TBST. Peroxidase activity was detected using ECL-Plus according to the manufacturer's protocol.
Background: Immunoblotting shows a protein as a band on a membrane.

The next data set has as its target pIKKαβ (Mus musculus (Mouse), UniProt O88351+Q60680). In words: pIKKαβ protein expression, Western blot. As to conditions: LPS-stimulated Raw264.7; 12 μM, 25 μM, 50 μM. Type of data set: cell-based. On the procedure:
as §3
Nuclear factor-kappa B (NF-κB), which plays an important role in inflammatory responses, is a transcription factor that regulates the synthesis of various cytokines, chemokines, and growth factors. […]

Sequence of PPARδ ligand-binding domain (LBD) (Q03181 211-439): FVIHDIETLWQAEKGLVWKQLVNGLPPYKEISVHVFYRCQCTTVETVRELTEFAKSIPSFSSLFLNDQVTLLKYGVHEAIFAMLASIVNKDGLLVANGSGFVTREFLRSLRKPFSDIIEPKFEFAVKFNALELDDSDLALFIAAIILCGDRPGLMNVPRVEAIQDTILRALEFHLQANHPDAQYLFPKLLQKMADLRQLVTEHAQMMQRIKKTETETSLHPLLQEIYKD

The EC50 is the concentration giving half of the maximal effect. With `Cc1cc(SCc2nnc(-c3ccc(C(F)(F)F)cc3)s2)ccc1OCC(=O)O` [Example 1, 2-(2-methyl-4-(((5-(4-(trifluoromethyl)phenyl)-1,3,4-thiadiazol-2-yl)methyl)thio)phenoxy)acetic acid], in the data set with NF-κB, the NF-κb-luciferase luminescent signals result is listed as “decreased in a concentration-dependent manner”. In addition, the EC50 in data set [1] worked out at 39.9 nM. Further, the “production of TNFα” value in the data set with TNF-α was “effectively inhibited”. Also, the NO concentration produced in [2] (compound 12.5 μM (0 μM control 22.8±1.3 μM)) was 18.9 ± 0.3 µM; in [2] (compound 25 μM (0 μM control 22.8±1.3 μM)), 14.8 ± 0.54 µM; in [2] (compound 50 μM (0 μM control 22.8±1.3 μM)), 2.41 ± 0.24 µM. Further, the “fluorescent signal of labeled macrophages in sole injected with 0.1% CG” value in [3] is recorded as “lower fluorescent signal”. For the same compound, the “production of IL-6” value with IL-6 is “effectively inhibited”. In addition, in the data set with RAW 264.7 cells, the “cytotoxicity (CCK8 assay, cell proliferation)” value is “no cytotoxicity at all concentrations”. At iNOS, the iNOS protein expression entry is listed as “significantly suppressed”. In addition, the pIKKαβ protein expression result on pIKKαβ is reported as “effectively reduced”.

(Values after US20250197363A1, “THIADIAZOLE COMPOUND, AND PHARMACEUTICAL COMPOSITION FOR PREVENTING OR TREATING INFLAMMATORY DISEASES, INCLUDING SAME” (Cureverse Incorporated, priority 2022, published 2025).)
